The subject of data set [1] is rats subjected to SAO shock. Kind of data set: Splanchnic arterial occlusion (SAO) shock with Futhan pretreatment. It is filed as in vivo, rat. The source says:
Rats randomly selected were weighed and anesthetized, and arterial and venous catheters were inserted which were used for blood pressure measurements and anesthesia, respectively. […] At the termination of the experiments arterial blood was drawn for determination of plasma peroxide concentration using a peroxide electrode measurement technique.
Male Wistar rats (250-320 g) were randomly divided into SAO shock (n=7) and SAO shock sham groups (n=6). Animals were cannulated via the femoral arteries and vein under general anesthesia using pentobarbital (50 mg/kg i.m.). No heparin was injected other than that needed to ensure open catheter lines (10U/ml Plasma-Lyte). One femoral artery was connected up to monitor continuous mean arterial pressure (MAP), while the other was used for the collection of blood samples. […] MAP and heart rate were recorded.

The test system of data set [2] is rats. Kind of data set: Bolus injection of pancreatic homogenate (mock SAO shock). It is filed as in vivo. On the procedure:
A bolus injection of incubated pancreatic homogenate was tested for its ability to lead to circulatory shock in the rat. The ability of Futhan pretreatment to mitigate shock induced in this manner was also tested. A mock SAO shock protocol was repeated as previously described, with either 60 min Futhan or saline pretreatment and a 2 ml bolus injection of either pancreatic homogenate or low-molecular weight pancreatic homogenate injected in lieu of arterial clamping.
The SAO shock experiments were repeated with the bolus injection of pancreatic homogenate in an effort to simulate the “unclamping” of the arteries and liberation of pancreatic components into the circulation instead of the actual ischemia/reperfusion of the splanchnic region. The low-molecular weight (2 ml) as well whole homogenate (2 ml) were tested for their ability to induce hypotension and cause circulatory shock. The ability of Futhan to counter the effects of the injection of pancreatic homogenate was also tested as in the SAO shock protocol. At the termination of these experiments arterial blood was drawn for the determination of plasma peroxide concentration using the peroxide electrode measurement technique.

For data set [3], the system named is isolated naive human neutrophils. Kind of data set: Pseudopod formation test: protease inhibitors against pancreatic homogenate-induced neutrophil activation. In kind it is cell-based. On the procedure: For the pseudopod assay, venous blood is collected in heparinized tubes from healthy human volunteers and put on ice. It is important that heparin and not EDTA ([…]) be used as an anticoagulant, as the calcium-chelating properties of EDTA can affect neutrophil activation. […] Other chemicals for the Krebs-Henseleit buffer are from Fisher Scientific, Fair Lawn, N.J. The resuspended cells are then gently layered onto 2.5 ml of a 55% isotonic Percoll (Sigmal Chemical Company) solution and 2.5 ml of a 74% isotonic Percoll solution in deionized water. The suspension is centrifuged for 15 minutes at 600 G and the middle granulocyte layer is removed and resuspended in PBS to achieve a concentration of 10^6 neutrophils/ml. 100 μl aliquots of suspended neutrophils are added to 100 μl of test plasma or activating agent. This mixture is mixed and then incubated for 10 minutes at 27° C. After incubation 100 μl of 3% glutaraldehyde (Fisher Scientific) is added to stop the reaction. 100 μl of crystal violet in phosphate (pH: 7.4) buffer is then added to stain leukocyte nuclei on wet mount preparations. Freely suspended neutrophils with pseudopodia are identified by their segmented nuclei and the presence of cytoplasmic granules. One hundred neutrophils are counted. Cells with pseudopod projection greater than about 1 um are considered positive.
Rat homogenate was collected as described in detail in Example 5. Briefly, male Wistar rats (250-350 gm) were housed in a controlled environment and maintained on a standard pellet diet for at least three days before initiation of experimental procedures. Animals were cannulated via the femoral arteries and vein under general anesthesia using pentobarbital (50 mg/kg i.m.). The rats were exsanguinated and the heart, liver, spleen, small intestine, and pancreas removed. The organs were immediately washed and cleaned in cold 0.25 M sucrose solution. Then, the cleaned organs were vigorously homogenized in Krebs-Henseleit solution ([…]). Aliquots were filtered by centrifugation at 500 G for 10 min. Pancreatic homogenates were incubated for 2.5 hours at 38° C., stirred frequently. Incubated pancreatic homogenate as well as controls were tested against naive human donor neutrophils for pseudopod formation as described in Example 2.
To determine whether or not neutrophil activation by pancreatic homogenate is protease dependent, the pseudopod formation test was repeated by preincubation of isolated neutrophils with various protease inhibitors (50 μl) for 10 minutes followed by addition of pancreas homogenate (50 μl) and further incubation for 10 minutes. […] All protease inhibitors were the gift of Dr. Tony E. Hugli of The Scripps Clinic and Research Institute, with the exception of Complete™, an all-purpose protease inhibitor purchased from Boehringer Mannheim, Indianapolis, Ind. One of the components of Complete™ is EDTA (ethylenediaminetetra-acetic acid), a standard anti-coagulant and divalent cation chelator.
To determine whether the protease inhibitors were acting on the pancreatic homogenate or the neutrophils themselves, a new set of neutrophil pseudopod experiments was carried out. […] Appropriate controls were recorded as well as a positive control (10^−7 M fMLP) to determine the washed cells' ability to respond to stimuli. Formyl-methionyl-leucyl-phenylalanine (fMLP) was obtained from Sigma Chemical Company, St. Louis, Mo.

Experimental findings from patent publication US20030190368A1, “METHODS OF DIAGNOSIS AND TRIAGE USING CELL ACTIVATION MEASURES” (priority 1998, published 2003) are described below.

“Also recorded” adds a separate entry of the source.

Consider `CS(=O)(=O)O.CS(=O)(=O)O.N=C(N)Nc1ccc(C(=O)Oc2ccc3cc(C(=N)N)ccc3c2)cc1` [Futhan, 6-amidino-2-naphthyl p-guanidinobenzoate dimethanesulfonate], for which the “MAP and survival time, small bolus regimen” value in data set [1] (0.05 ml bolus every 5 minutes, 1, 3.3, 10, 20 mg Futhan/kg body wt, pretreatment 30 or 60 min) is listed as “uniformly unable to restore MAP or increase survival times”. Further, the “blood pressure effect of Futhan injection” value in data set [1] (0.05 ml doses) is on record as “transient hypotension”. Also, in data set [1] (Futhan 3.3 mg/kg body wt/hour i.v. infusion pump, 60 min pretreatment, vs saline), the “mean arterial pressure after removal of arterial clamps” value is listed as “significant reduction in the fall of blood pressure”. The “survival / mortality after SAO shock” value in data set [1] (Futhan 3.3 mg/kg body wt/hour infusion, 60 min pretreatment, vs saline controls, dimethanesulfonate) is “significant increase in survival; also recorded: prevented mortality”. The “circulating plasma peroxide after SAO shock” value in data set [1] (Futhan 3.3 mg/kg body wt/hour infusion, vs control animals) is recorded as “significantly lower levels of circulating peroxide production”. The “plasma peroxide formation after SAO shock, small bolus regimen” value in data set [1] (initial experiments, bolus injections) is reported as “ineffective”. In addition, the “mortality after pancreatic homogenate injection in Futhan-pretreated rats” value in data set [2] (60 minute post-injection observation period, Futhan 3.3 mg/kg body wt/hr) is “None of the Futhan-treated group died”. Also, the “MAP after pancreatic homogenate injection in Futhan-pretreated rats” value in data set [2] (Futhan 3.3 mg/kg body wt/hr) was “MAP returned to nearly initial values”. In addition, in data set [2] (infusion pump 3.3 mg/kg body wt/hr), the “blood pressure effect of Futhan infusion pretreatment” value is on record as “depression of MAP”. Moreover, in data set [3] (neutrophils incubated 10 min with Futhan 0.1 mg/ml, washed two times, then pancreatic homogenate 10 min), the “percent neutrophil activation, Wash group” value is listed as 53.5±31%. The “percent neutrophil pseudopod formation (activation) by rat pancreatic homogenate in presence of protease inhibitor” value in data set [3] (neutrophils preincubated 10 min with inhibitor (PMSF 1 mM; Complete 1 tablet/20 ml; Benzamidine 1150 μM; Futhan 0.1 mg/ml; aprotinin 20 μM), then homogenate 10 min, homogenate alone 85.1±11.5%) is recorded as 30.3±11.8%. Further, the “inhibition of pancreatic homogenate-induced neutrophil activation (in words)” value in data set [3] (pseudopod formation, rat pancreatic homogenate, dimethanesulfonate) is given as “abolished pancreatic homogenate-induced activation; also recorded: dose-dependent inhibition”. Further, the “percent neutrophil activation, Inhibitor group” value in data set [3] (washed neutrophils incubated with combined Futhan 0.1 mg/ml and pancreatic homogenate) was found to be 51.5±34%.
